Experimental data from ChEMBL document CHEMBL3885861, “Open TG-GATES”.

Species on record: Rattus norvegicus
Assay: Open TG-GATES - Regimen: Single
Type: toxicity, organism-based, Sprague-Dawley
Design: regimen Single, gender Male, age 6 weeks
Conditions: in vivo, po, route gavage; for APTT / Bas / Eos / Fbg / Hb / Ht / Lym / MCH / MCHC / MCV / Mono / Neu / PT / Plat / RBC / Ret / WBC: tissue Blood; for KIDNEY_TOTAL: tissue Kidney; for LIVER: tissue Liver; for A/G / ALP / ALT / AST / BUN / CRE / Ca / Cl / DBIL / GLC / IP / K / LDH / Na / PL / RALB / TBIL / TC / TG / TP / gamma-GTP: tissue Plasma
[1] = 100 mg/kg, 3 h, dose level Middle
[2] = 100 mg/kg, 6 h, dose level Middle
[3] = 100 mg/kg, 9 h, dose level Middle
[4] = 100 mg/kg, 24 h, dose level Middle
[5] = 500 mg/kg, 3 h, dose level High
[6] = 500 mg/kg, 6 h, dose level High
[7] = 500 mg/kg, 9 h, dose level High
[8] = 500 mg/kg, 24 h, dose level High

## CN(CCOc1ccc(CC2SC(=O)NC2=O)cc1)c1ccccn1.O=C(O)/C=C\C(=O)O (stereo not drawn) [ROSIGLITAZONE MALEATE]
[1]
  TERMINAL_BW: 205.4 g
  APTT: 16.2 s
  Bas: 0%
  Eos: 1%
  Fbg: 217.8 mg/dL
  Hb: 13 g/dL
  Ht: 39.5%
  Lym: 77.2%
  MCH: 21.3 pg
  MCHC: 32.8%
  MCV: 65 fL
  Mono: 7.8%
  Neu: 14.4%
  PT: 12.2 s
  Plat: 119.4 x10_4/uL
  RBC: 607.6 x10_4/ul
  Ret: 8.6%
  WBC: 105 x10_2/uL
  KIDNEY_TOTAL: 0.8 g
  LIVER: 9.5 g
  A/G: 2.2
  ALP: 1374 IU/L
  ALT: 36.6 IU/L
  AST: 74.6 IU/L
  BUN: 13.4 mg/dL
  CRE: 0.4 mg/dL
  Ca: 11.6 mg/dL
  Cl: 104 meq/L
  DBIL: 0.014 mg/dL
  GLC: 189.2 mg/dL
  IP: 8.9 mg/dL
  K: 4.4 meq/L
  LDH: 107.8 IU/L
  Na: 139.6 meq/L
  PL: 133.2 mg/dL
  RALB: 3.6 g/dL
  TBIL: 0.046 mg/dL
  TC: 78.8 mg/dL
  TG: 75.6 mg/dL
  TP: 5.3 g/dL
  gamma-GTP: 0.8 IU/L
[2]
  TERMINAL_BW: 206.8 g
  APTT: 16.7 s
  Bas: 0%
  Eos: 1%
  Fbg: 221.8 mg/dL
  Hb: 12.4 g/dL
  Ht: 37.5%
  Lym: 67.4%
  MCH: 20.7 pg
  MCHC: 33.1%
  MCV: 62.5 fL
  Mono: 9.8%
  Neu: 22%
  PT: 12.4 s
  Plat: 124.2 x10_4/uL
  RBC: 600 x10_4/ul
  Ret: 8.9%
  WBC: 105.2 x10_2/uL
  KIDNEY_TOTAL: 0.8 g
  LIVER: 9 g
  A/G: 2.3
  ALP: 1392.2 IU/L
  ALT: 33.6 IU/L
  AST: 64 IU/L
  BUN: 10.2 mg/dL
  CRE: 0.4 mg/dL
  Ca: 11.1 mg/dL
  Cl: 104.2 meq/L
  DBIL: 0.016 mg/dL
  GLC: 179.2 mg/dL
  IP: 10 mg/dL
  K: 4.5 meq/L
  LDH: 82.2 IU/L
  Na: 138.4 meq/L
  PL: 127.8 mg/dL
  RALB: 3.6 g/dL
  TBIL: 0.042 mg/dL
  TC: 73 mg/dL
  TG: 64.2 mg/dL
  TP: 5.2 g/dL
  gamma-GTP: 1 IU/L
[3]
  TERMINAL_BW: 198.2 g
  APTT: 16.2 s
  Bas: 0%
  Eos: 1%
  Fbg: 217 mg/dL
  Hb: 12.7 g/dL
  Ht: 38.5%
  Lym: 75.6%
  MCH: 22.1 pg
  MCHC: 32.9%
  MCV: 67.1 fL
  Mono: 4.8%
  Neu: 19%
  PT: 12.3 s
  Plat: 118.4 x10_4/uL
  RBC: 574.2 x10_4/ul
  Ret: 8.9%
  WBC: 85 x10_2/uL
  KIDNEY_TOTAL: 0.8 g
  LIVER: 8.3 g
  A/G: 2.5
  ALP: 1125.2 IU/L
  ALT: 28 IU/L
  AST: 62 IU/L
  BUN: 11.2 mg/dL
  CRE: 0.4 mg/dL
  Ca: 11.7 mg/dL
  Cl: 103.8 meq/L
  DBIL: 0.014 mg/dL
  GLC: 190.6 mg/dL
  IP: 11.3 mg/dL
  K: 4.3 meq/L
  LDH: 120.2 IU/L
  Na: 140.4 meq/L
  PL: 122.2 mg/dL
  RALB: 3.9 g/dL
  TBIL: 0.046 mg/dL
  TC: 70.2 mg/dL
  TG: 49.6 mg/dL
  TP: 5.5 g/dL
  gamma-GTP: 0.6 IU/L
[4]
  TERMINAL_BW: 224.2 g
  APTT: 16.3 s
  Bas: 0%
  Eos: 0.8%
  Fbg: 213.2 mg/dL
  Hb: 12.4 g/dL
  Ht: 38%
  Lym: 68.8%
  MCH: 20.9 pg
  MCHC: 32.7%
  MCV: 63.8 fL
  Mono: 9.4%
  Neu: 21.2%
  PT: 11.5 s
  Plat: 120.6 x10_4/uL
  RBC: 596.2 x10_4/ul
  Ret: 7.7%
  WBC: 74.8 x10_2/uL
  KIDNEY_TOTAL: 0.6 g
  LIVER: 11.2 g
  A/G: 2.7
  ALP: 1341.6 IU/L
  ALT: 40.2 IU/L
  AST: 71.2 IU/L
  BUN: 16.6 mg/dL
  CRE: 0.4 mg/dL
  Ca: 11.3 mg/dL
  Cl: 104.4 meq/L
  DBIL: 0.016 mg/dL
  GLC: 187.6 mg/dL
  IP: 7.8 mg/dL
  K: 4.5 meq/L
  LDH: 123.8 IU/L
  Na: 140 meq/L
  PL: 161.6 mg/dL
  RALB: 3.8 g/dL
  TBIL: 0.032 mg/dL
  TC: 90.6 mg/dL
  TG: 127.2 mg/dL
  TP: 5.3 g/dL
  gamma-GTP: 1 IU/L
[5]
  TERMINAL_BW: 202.9 g
  APTT: 16.4 s
  Bas: 0%
  Eos: 0.6%
  Fbg: 224.2 mg/dL
  Hb: 13 g/dL
  Ht: 39.4%
  Lym: 77.6%
  MCH: 21.2 pg
  MCHC: 33.1%
  MCV: 64.1 fL
  Mono: 7.8%
  Neu: 14.2%
  PT: 12.3 s
  Plat: 129.2 x10_4/uL
  RBC: 613.8 x10_4/ul
  Ret: 9.1%
  WBC: 85.4 x10_2/uL
  KIDNEY_TOTAL: 0.6 g
  LIVER: 8.9 g
  A/G: 2.3
  ALP: 1535.8 IU/L
  ALT: 35.8 IU/L
  AST: 69.6 IU/L
  BUN: 15 mg/dL
  CRE: 0.5 mg/dL
  Ca: 11.6 mg/dL
  Cl: 102.2 meq/L
  DBIL: 0.01 mg/dL
  GLC: 185.2 mg/dL
  IP: 10.5 mg/dL
  K: 4.2 meq/L
  LDH: 76.8 IU/L
  Na: 140.4 meq/L
  PL: 137 mg/dL
  RALB: 3.9 g/dL
  TBIL: 0.036 mg/dL
  TC: 84.2 mg/dL
  TG: 78 mg/dL
  TP: 5.6 g/dL
  gamma-GTP: 1 IU/L
[6]
  TERMINAL_BW: 206.5 g
  APTT: 16.5 s
  Bas: 0%
  Eos: 1%
  Fbg: 217 mg/dL
  Hb: 13.2 g/dL
  Ht: 40%
  Lym: 62.6%
  MCH: 21 pg
  MCHC: 32.9%
  MCV: 63.8 fL
  Mono: 11.6%
  Neu: 24.8%
  PT: 11.8 s
  Plat: 118.4 x10_4/uL
  RBC: 626.8 x10_4/ul
  Ret: 9.7%
  WBC: 75.4 x10_2/uL
  KIDNEY_TOTAL: 0.7 g
  LIVER: 8.6 g
  A/G: 2.4
  ALP: 1138.8 IU/L
  ALT: 30.8 IU/L
  AST: 69 IU/L
  BUN: 10 mg/dL
  CRE: 0.5 mg/dL
  Ca: 11 mg/dL
  Cl: 104 meq/L
  DBIL: 0.014 mg/dL
  GLC: 176.4 mg/dL
  IP: 10.6 mg/dL
  K: 4 meq/L
  LDH: 70.4 IU/L
  Na: 139.6 meq/L
  PL: 140.4 mg/dL
  RALB: 3.9 g/dL
  TBIL: 0.042 mg/dL
  TC: 89.2 mg/dL
  TG: 69.2 mg/dL
  TP: 5.5 g/dL
  gamma-GTP: 1 IU/L
[7]
  TERMINAL_BW: 203.4 g
  APTT: 17 s
  Bas: 0%
  Eos: 0.8%
  Fbg: 211.4 mg/dL
  Hb: 12.4 g/dL
  Ht: 37.6%
  Lym: 77.4%
  MCH: 21.5 pg
  MCHC: 33%
  MCV: 65.2 fL
  Mono: 5.2%
  Neu: 16.6%
  PT: 12.4 s
  Plat: 128.2 x10_4/uL
  RBC: 577 x10_4/ul
  Ret: 9.1%
  WBC: 77.4 x10_2/uL
  KIDNEY_TOTAL: 0.6 g
  LIVER: 7.9 g
  A/G: 2.6
  ALP: 1267.6 IU/L
  ALT: 28.2 IU/L
  AST: 65.4 IU/L
  BUN: 12 mg/dL
  CRE: 0.4 mg/dL
  Ca: 11.8 mg/dL
  Cl: 104.2 meq/L
  DBIL: 0.016 mg/dL
  GLC: 180.8 mg/dL
  IP: 10.9 mg/dL
  K: 4.6 meq/L
  LDH: 94.6 IU/L
  Na: 139.8 meq/L
  PL: 114.8 mg/dL
  RALB: 3.9 g/dL
  TBIL: 0.048 mg/dL
  TC: 63.6 mg/dL
  TG: 68.6 mg/dL
  TP: 5.4 g/dL
  gamma-GTP: 0.4 IU/L
[8]
  TERMINAL_BW: 222.1 g
  APTT: 16.4 s
  Bas: 0%
  Eos: 1.2%
  Fbg: 212.6 mg/dL
  Hb: 12.3 g/dL
  Ht: 37.6%
  Lym: 65.6%
  MCH: 21.3 pg
  MCHC: 32.7%
  MCV: 65.1 fL
  Mono: 8.4%
  Neu: 24.8%
  PT: 12.1 s
  Plat: 128.4 x10_4/uL
  RBC: 578.4 x10_4/ul
  Ret: 8.4%
  WBC: 96 x10_2/uL
  KIDNEY_TOTAL: 0.7 g
  LIVER: 10.3 g
  A/G: 2.7
  ALP: 1526.8 IU/L
  ALT: 34.6 IU/L
  AST: 65.2 IU/L
  BUN: 18 mg/dL
  CRE: 0.4 mg/dL
  Ca: 11.1 mg/dL
  Cl: 104.2 meq/L
  DBIL: 0.02 mg/dL
  GLC: 183.8 mg/dL
  IP: 7.9 mg/dL
  K: 4.6 meq/L
  LDH: 87.6 IU/L
  Na: 140.4 meq/L
  PL: 127 mg/dL
  RALB: 3.9 g/dL
  TBIL: 0.03 mg/dL
  TC: 70.2 mg/dL
  TG: 113.6 mg/dL
  TP: 5.3 g/dL
  gamma-GTP: 1 IU/L
